Results taken from patent publication US6737383B1, “Herbicidal oxadiazolidines” (priority 1999, dated 2004).

Tests used:
[1] = tested on: blackgrass; assay: Test B pre/postemergence blackgrass; format: in vivo, Alopecurus myosuroides; conditions: for Blackgrass plant response rating: scale of 0 to 10 where 0 is no effect and 10 is complete control
How it was run: (§1)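 Herbicidal effect was estimated by eye on a ten-point control scale after plants spent twelve to sixteen days in a greenhouse following soil or foliar treatment. Foliar sprays targeted plants at one to four leaves; all doses were formulated in a non-phytotoxic solvent with surfactant.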

[2] = tested on: surinam grass; assay: Test B pre/postemergence surinam grass; format: in vivo, Brachiaria decumbens; conditions: for B. signalgrass plant response rating: scale of 0 to 10 where 0 is no effect and 10 is complete control
How it was run: as §1

[3] = tested on: corn; assay: Test B pre/postemergence corn; format: in vivo, Zea mays; conditions: for Corn plant response rating: scale of 0 to 10 where 0 is no effect and 10 is complete control
How it was run: as §1

[4] = tested on: crabgrass; assay: Test B pre/postemergence crabgrass; format: in vivo, Digitaria sanguinalis; conditions: for Crabgrass plant response rating: scale of 0 to 10 where 0 is no effect and 10 is complete control
How it was run: as §1

[5] = tested on: giant foxtail; assay: Test B pre/postemergence giant foxtail; format: in vivo, Setaria faberii; conditions: for Giant foxtail plant response rating: scale of 0 to 10 where 0 is no effect and 10 is complete control
How it was run: as §1

[6] = tested on: morningglory; assay: Test B pre/postemergence morningglory; format: in vivo, Ipomoea hederacea; conditions: for Morningglory plant response rating: scale of 0 to 10 where 0 is no effect and 10 is complete control
How it was run: as §1

[7] = tested on: pigweed; assay: Test B pre/postemergence pigweed; format: in vivo, Amaranthus retroflexus; conditions: for Redroot pigweed plant response rating: scale of 0 to 10 where 0 is no effect and 10 is complete control
How it was run: as §1

[8] = tested on: soybean; assay: Test B pre/postemergence soybean; format: in vivo, Glycine max; conditions: for Soybean plant response rating: scale of 0 to 10 where 0 is no effect and 10 is complete control
How it was run: as §1

[9] = tested on: velvetleaf; assay: Test B pre/postemergence velvetleaf; format: in vivo, Abutilon theophrasti; conditions: for Velvetleaf plant response rating: scale of 0 to 10 where 0 is no effect and 10 is complete control
How it was run: as §1

[10] = tested on: wheat; assay: Test B pre/postemergence wheat; format: in vivo, Triticum aestivum; conditions: for Wheat plant response rating: scale of 0 to 10 where 0 is no effect and 10 is complete control
How it was run: as §1

[11] = tested on: wild oat; assay: Test B pre/postemergence wild oat; format: in vivo, Avena fatua; conditions: for Wild oats plant response rating: scale of 0 to 10 where 0 is no effect and 10 is complete control
How it was run: as §1

[12] = tested on: purple nutsedge; assay: Test B pre/postemergence purple nutsedge; format: in vivo, Cyperus rotundus; conditions: for Nutsedge plant response rating: scale of 0 to 10 where 0 is no effect and 10 is complete control
How it was run: as §1

[13] = tested on: rice; assay: Test B flood test rice; format: in vivo, Oryza sativa
How it was run: (§2)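 Flood test on plants grown to the 2-leaf stage; treated plants kept in greenhouse twelve to sixteen days, then visually rated against controls on a 0 (no effect) to 10 (complete control) scale.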

[14] = tested on: smallflower flatsedge; assay: Test B flood test smallflower flatsedge; format: in vivo, Cyperus difformis
How it was run: as §2

[15] = tested on: duck salad; assay: Test B flood test duck salad; format: in vivo, Heteranthera limosa
How it was run: as §2

[16] = Postemergence, Rate 125 g/ha, scale 0 to 10, 0 is no effect, 10 is complete control
[17] = Postemergence, Rate 250 g/ha, scale 0 to 10, 0 is no effect, 10 is complete control
[18] = Preemergence, Rate 62 g/ha, scale 0 to 10 (0 no effect, 10 complete control)
[19] = Rate 500 g/ha, Postemergence, scale 0 to 10, 0 no effect, 10 complete control
[20] = Rate 62 g/ha, flood test species, Pre-emergence, visual evaluation after twelve to sixteen days
[21] = Rate 125 g/ha, under heading Pre-emergence, flood test species, visual evaluation after twelve to sixteen days
[22] = Rate 250 g/ha, Pre-emergence, flood-test species, scale 0 to 10, 0 is no effect, 10 is complete control
[23] = Rate 500 g/ha, Pre-emergence, flood test species, scale 0 to 10 (0 no effect, 10 complete control)

## Cc1nnsc1Cn1c(=O)on(C(=O)N(c2ccc(F)cc2)C(C)C)c1=O [Compound 380]
[1]; [16]
  Plant response rating, Blackgrass: 0
[1]; [17]
  Plant response rating, Blackgrass: 0
[1]; [18]
  Plant response rating, Blackgrass: 0
[1]; Preemergence, Rate 125 g/ha
  Blackgrass plant response rating (0 to 10 scale): 0
[1]; Preemergence, Rate 250 g/ha
  Blackgrass plant response rating: 0
[1]; Preemergence, Rate 500 g/ha
  Blackgrass plant response rating: 2
[1]; Rate 62 g/ha, Postemergence
  Blackgrass plant response rating: 0
[1]; [19]
  Plant response rating, Blackgrass: 0
[2]; [16]
  Plant response rating, B. signalgrass: 0
[2]; [17]
  Plant response rating, B. signalgrass: 0
[2]; [18]
  Plant response rating, B. signalgrass: 0
[2]; Preemergence, Rate 125 g/ha
  B. signalgrass plant response rating (0 to 10 scale, 0 is no effect, 10 is complete control): 0
[2]; Preemergence, Rate 250 g/ha
  B. signalgrass plant response rating: 0
[2]; Preemergence, Rate 500 g/ha
  B. signalgrass plant response rating: 0
[2]; Rate 62 g/ha, Postemergence
  B. signalgrass plant response rating: 0
[2]; [19]
  Plant response rating, B. signalgrass: 0
[3]; [16]
  Plant response rating, Corn: 0
[3]; [17]
  Plant response rating, Corn: 0
[3]; [18]
  Plant response rating, Corn: 0
[3]; Preemergence, Rate 125 g/ha
  Corn plant response rating (0 to 10 scale): 0
[3]; Preemergence, Rate 250 g/ha
  Corn plant response rating: 0
[3]; Preemergence, Rate 500 g/ha
  Corn plant response rating: 0
[3]; Rate 62 g/ha, Postemergence
  Corn plant response rating: 0
[3]; [19]
  Plant response rating, Corn: 0
[4]; [16]
  Plant response rating, Crabgrass: 1
[4]; [17]
  Plant response rating, Crabgrass: 2
[4]; [18]
  Plant response rating, Crabgrass: 1
[4]; Preemergence, Rate 125 g/ha
  Crabgrass plant response rating (0 to 10 scale): 7
[4]; Preemergence, Rate 250 g/ha
  Crabgrass plant response rating: 7
[4]; Preemergence, Rate 500 g/ha
  Crabgrass plant response rating: 9
[4]; Rate 62 g/ha, Postemergence
  Crabgrass plant response rating: 0
[4]; [19]
  Plant response rating, Crabgrass: 7
[5]; [16]
  Plant response rating, Giant foxtail: 2
[5]; [17]
  Plant response rating, Giant foxtail: 9
[5]; [18]
  Plant response rating, Giant foxtail: 2
[5]; Preemergence, Rate 125 g/ha
  Giant foxtail plant response rating (0 to 10 scale): 8
[5]; Preemergence, Rate 250 g/ha
  Giant foxtail plant response rating: 9
[5]; Preemergence, Rate 500 g/ha
  Giant foxtail plant response rating: 10
[5]; Rate 62 g/ha, Postemergence
  Giant foxtail plant response rating: 1
[5]; [19]
  Plant response rating, Giant foxtail: 9
[6]; [16]
  Plant response rating, Morningglory: 5
[6]; [17]
  Plant response rating, Morningglory: 5
[6]; [18]
  Plant response rating, Morningglory: 0
[6]; Preemergence, Rate 125 g/ha
  Morningglory plant response rating (0 to 10 scale): 0
[6]; Preemergence, Rate 250 g/ha
  Morningglory plant response rating: 0
[6]; Preemergence, Rate 500 g/ha
  Morningglory plant response rating: 0
[6]; Rate 62 g/ha, Postemergence
  Morningglory plant response rating: 5
[6]; [19]
  Plant response rating, Morningglory: 10
[7]; [16]
  Plant response rating, Redroot pigweed: 0
[7]; [17]
  Plant response rating, Redroot pigweed: 0
[7]; [18]
  Plant response rating, Redroot pigweed: 0
[7]; Preemergence, Rate 125 g/ha
  Redroot pigweed plant response rating (0 to 10 scale): 3
[7]; Preemergence, Rate 250 g/ha
  Redroot pigweed plant response rating: 3
[7]; Preemergence, Rate 500 g/ha
  Redroot pigweed plant response rating: 6
[7]; Rate 62 g/ha, Postemergence
  Redroot pigweed plant response rating: 0
[7]; [19]
  Plant response rating, Redroot pigweed: 5
[8]; [16]
  Plant response rating, Soybean: 1
[8]; [17]
  Plant response rating, Soybean: 1
[8]; [18]
  Plant response rating, Soybean: 0
[8]; Preemergence, Rate 125 g/ha
  Soybean plant response rating (0 to 10 scale): 0
[8]; Preemergence, Rate 250 g/ha
  Soybean plant response rating: 0
[8]; Preemergence, Rate 500 g/ha
  Soybean plant response rating: 0
[8]; Rate 62 g/ha, Postemergence
  Soybean plant response rating: 0
[8]; [19]
  Plant response rating, Soybean: 1
[9]; [16]
  Plant response rating, Velvetleaf: 0
[9]; [17]
  Plant response rating, Velvetleaf: 0
[9]; [18]
  Plant response rating, Velvetleaf: 0
[9]; Preemergence, Rate 125 g/ha
  Velvetleaf plant response rating (0 to 10 scale): 0
[9]; Preemergence, Rate 250 g/ha
  Velvetleaf plant response rating: 0
[9]; Preemergence, Rate 500 g/ha
  Velvetleaf plant response rating: 0
[9]; Rate 62 g/ha, Postemergence
  Velvetleaf plant response rating: 0
[9]; [19]
  Plant response rating, Velvetleaf: 3
[10]; [16]
  Plant response rating, Wheat: 0
[10]; [17]
  Plant response rating, Wheat: 0
[10]; [18]
  Plant response rating, Wheat: 0
[10]; Preemergence, Rate 125 g/ha
  Wheat plant response rating (0 to 10 scale): 0
[10]; Preemergence, Rate 250 g/ha
  Wheat plant response rating: 0
[10]; Preemergence, Rate 500 g/ha
  Wheat plant response rating: 0
[10]; Rate 62 g/ha, Postemergence
  Wheat plant response rating: 0
[10]; [19]
  Plant response rating, Wheat: 0
[11]; [16]
  Plant response rating, Wild oats: 0
[11]; [17]
  Plant response rating, Wild oats: 0
[11]; [18]
  Plant response rating, Wild oats: 0
[11]; Preemergence, Rate 125 g/ha
  Wild oats plant response rating (0 to 10 scale): 0
[11]; Preemergence, Rate 250 g/ha
  Wild oats plant response rating: 0
[11]; Preemergence, Rate 500 g/ha
  Wild oats plant response rating: 4
[11]; Rate 62 g/ha, Postemergence
  Wild oats plant response rating: 0
[11]; [19]
  Plant response rating, Wild oats: 0
[12]; [16]
  Plant response rating, Nutsedge: 0
[12]; [17]
  Plant response rating, Nutsedge: 0
[12]; [18]
  Plant response rating, Nutsedge: 0
[12]; Preemergence, Rate 125 g/ha
  Nutsedge plant response rating (0 to 10 scale): 0
[12]; Preemergence, Rate 250 g/ha
  Nutsedge plant response rating: 0
[12]; Preemergence, Rate 500 g/ha
  Nutsedge plant response rating: 0
[12]; Rate 62 g/ha, Postemergence
  Nutsedge plant response rating: 0
[12]; [19]
  Plant response rating, Nutsedge: 0
[13]; [20]
  Plant response rating, Rice (0 to 10 scale, 0 is no effect, 10 is complete control): 0
[13]; [21]
  Rice plant response rating (0 to 10 scale, 0 is no effect, 10 is complete control): 0
[13]; [22]
  Rice plant response rating: 0
[13]; [23]
  Rice plant response rating: 0
[14]; [20]
  Plant response rating, S. Flatsedge (0 to 10 scale, 0 is no effect, 10 is complete control): 0
[14]; [21]
  S. Flatsedge plant response rating (0 to 10 scale, 0 is no effect, 10 is complete control): 0
[14]; [22]
  S. Flatsedge plant response rating: 0
[14]; [23]
  S. Flatsedge plant response rating: 0
[15]; [20]
  Plant response rating, Ducksalad (0 to 10 scale, 0 is no effect, 10 is complete control): 0
[15]; [21]
  Ducksalad plant response rating (0 to 10 scale, 0 is no effect, 10 is complete control): 0
[15]; [22]
  Ducksalad plant response rating: 0
[15]; [23]
  Ducksalad plant response rating: 0
